The source of these data is US10214492B2, “Heterocyclic inhibitors of MCT4” (Vettore, LLC, priority 2016, dated 2019).

Where only a bound is given, the exact number is not on record here.

One test has as its target MCT4 (Homo sapiens (Human), UniProt O15427). As to the kind of experiment: Assay 3: MCT4-mediated lactate transport in MDA-MB-231 breast cancer cells. Conditions: MDA-MB-231 cells; lactate transport. The class given is cell-based. As for the experimental part: (§1) 10 μL of a 30 mM DMSO stock of BCECF-AM ester (Life Technologies) is added and the cells are incubated at 37° C. for 5 min. The cells are pelleted (300 g, 5 min), washed once with 1 mL Tyrode's Solution, pH 7.4, re-pelleted (300 g, 5 min), and resuspended in 1 mL Tyrode's Solution, pH 7.4.
MCT4 activity may be assessed by monitoring the intracellular pH change that accompanies lactate/proton symport, using the pH-sensitive fluorescent dye 2′,7′-bis-(carboxyethyl)-5(6)-carboxyfluorescein (BCECF), in a manner similar to that previously reported for MCT1 and MCT4. The following is an exemplary procedure for assaying MCT4 activity of the compounds of Formula (I).

Another test deals with MCT1 (Homo sapiens (Human), UniProt P53985). The test can be described thus: Assay 4: MCT1-mediated lactate transport in BT20 breast cancer cells. The following applies: Table 27. Format: cell-based. How it is done: as §1
Chain of MCT1 (P53985 whole entry): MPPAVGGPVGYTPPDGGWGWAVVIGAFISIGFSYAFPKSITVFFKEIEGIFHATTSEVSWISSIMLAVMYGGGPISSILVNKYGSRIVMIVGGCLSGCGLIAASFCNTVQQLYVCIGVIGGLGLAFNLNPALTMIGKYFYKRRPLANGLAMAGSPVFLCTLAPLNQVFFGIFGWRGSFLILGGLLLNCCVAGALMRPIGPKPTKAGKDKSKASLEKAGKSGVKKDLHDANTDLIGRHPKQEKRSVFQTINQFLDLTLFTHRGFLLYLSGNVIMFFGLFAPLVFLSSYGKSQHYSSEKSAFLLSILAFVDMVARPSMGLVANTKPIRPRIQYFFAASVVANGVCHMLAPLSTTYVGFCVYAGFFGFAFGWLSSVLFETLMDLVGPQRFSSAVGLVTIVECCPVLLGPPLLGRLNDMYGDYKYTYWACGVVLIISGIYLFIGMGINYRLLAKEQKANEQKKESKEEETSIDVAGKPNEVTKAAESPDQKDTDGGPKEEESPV
Chain of MCT1 (P35613 140-385 partner): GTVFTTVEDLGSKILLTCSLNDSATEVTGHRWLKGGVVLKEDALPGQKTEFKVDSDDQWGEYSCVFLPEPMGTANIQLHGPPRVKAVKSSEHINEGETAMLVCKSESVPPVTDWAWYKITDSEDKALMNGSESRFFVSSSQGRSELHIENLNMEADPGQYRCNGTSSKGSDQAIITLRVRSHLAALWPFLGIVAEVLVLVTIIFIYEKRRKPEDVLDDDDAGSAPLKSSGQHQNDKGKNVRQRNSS
Assay 4: MCT1-Mediated Lactate Transport in BT20 Breast Cancer Cells.
Preparation of BCECF loaded cells are as described for Assay 1. Lactate transport assay is as described for Assay 1, except 10 mM L-lactate (rather than 50 mM) is added.

Chain of MCT4 (O15427 whole entry, looked up): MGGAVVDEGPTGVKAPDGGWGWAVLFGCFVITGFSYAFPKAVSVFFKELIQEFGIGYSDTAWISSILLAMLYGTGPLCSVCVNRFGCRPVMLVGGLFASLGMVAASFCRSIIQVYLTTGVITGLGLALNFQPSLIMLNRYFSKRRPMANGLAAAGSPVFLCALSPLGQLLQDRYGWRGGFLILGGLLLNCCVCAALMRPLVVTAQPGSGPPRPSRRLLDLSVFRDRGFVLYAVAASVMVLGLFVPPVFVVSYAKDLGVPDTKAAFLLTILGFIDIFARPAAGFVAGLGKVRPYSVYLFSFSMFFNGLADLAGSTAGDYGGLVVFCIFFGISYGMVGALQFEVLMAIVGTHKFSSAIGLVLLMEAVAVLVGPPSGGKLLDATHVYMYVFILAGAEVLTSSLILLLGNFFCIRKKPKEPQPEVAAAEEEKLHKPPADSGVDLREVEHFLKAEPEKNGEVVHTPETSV
Chain of MCT4 (P35613 whole entry partner, looked up): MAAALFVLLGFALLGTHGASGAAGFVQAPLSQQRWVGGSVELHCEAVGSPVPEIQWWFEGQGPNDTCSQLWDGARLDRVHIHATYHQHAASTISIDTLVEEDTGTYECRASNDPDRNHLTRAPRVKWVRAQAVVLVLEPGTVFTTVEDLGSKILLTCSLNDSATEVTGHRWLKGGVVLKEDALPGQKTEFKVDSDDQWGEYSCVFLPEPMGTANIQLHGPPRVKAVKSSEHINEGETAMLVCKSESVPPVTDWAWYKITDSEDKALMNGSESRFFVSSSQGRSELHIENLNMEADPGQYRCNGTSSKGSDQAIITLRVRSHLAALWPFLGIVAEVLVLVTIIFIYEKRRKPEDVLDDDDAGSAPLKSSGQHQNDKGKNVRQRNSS

As for `CC(C)(OCc1cc(-c2ccc(OC3CC3)s2)n(Cc2ccccc2Cl)n1)C(=O)O` [Example 131, 2-([1-[(2-Chlorophenyl)methyl]-5-(5-cyclopropoxythien-2-yl)-1H-pyrazol-3-yl]methoxy)-2-methylpropanoic acid], the IC50 against MCT4 stood at 225 nM; on MCT1 it was 650 nM.
In the same order, the values of `COc1cccc(OC)c1Cn1nc(COC(C)(C)C(=O)O)cc1-c1cccc(OCC(C)C)c1` [Example 135, 2-([1-[(2,6-Dimethoxyphenyl)methyl]-5-[3-(2-methylpropoxy)phenyl] 1H-pyrazol-3-yl]methoxy)-2-methylpropanoic acid] are 53 nM and 220 nM.
The like results for `COc1cccc(-c2cc(COC(C)(C)C(=O)O)nn2CC(C)C)c1` [Example 137, 2-([5-(3-Methoxyphenyl)-1-(2-methylpropyl)-1H-pyrazol-3-yl]methoxy)-2-methylpropanoic acid] were, in that order, 1400 nM and above 100000 nM.
As to `COc1cccc(-c2cc(COC(C)(C)C(=O)O)nn2CC2CCOCC2)c1` [Example 138, 2-([5-(3-Methoxyphenyl)-1-([oxan-4-yl]-methyl)-1H-pyrazol-3-yl]methoxy)-2-methylpropanoic acid], the values for the IC50 against MCT4 and against MCT1 were 535 nM and above 100000 nM, respectively.
The like results for `COc1cccc(-c2cc(COC(C)(C)C(=O)O)nn2Cc2ncccc2Cl)c1` [Example 139, 2-([1-[(3-Chloropyridin-2-yl)methyl]-5-(3-methoxyphenyl)-1H-pyrazol-3-yl)methoxy)-2-methylpropanoic acid] were, in that order, 9700 nM and above 100000 nM.
In the case of `CCOc1ccccc1Cn1nc(COC(C)(C)C(=O)O)cc1-c1cccc(OC)c1` [Example 141, 2-([1-[(2-Ethoxyphenyl)methyl]-5-(3-methoxyphenyl)-1H-pyrazol-3-yl]methoxy)-2-methylpropanoic acid], the 50% inhibitory concentration (IC50) on MCT4 was found to be 6.7 nM; against MCT1 it was 33000 nM.
With `COc1cccc(-c2cc(COC(C)(C)C(=O)O)nn2Cc2ccccc2OC2CC2)c1` [Example 142, 2-([1-[(2-Cyclopropoxyphenyl)methyl]-5-(3-methoxyphenyl)-1H-pyrazol-3-yl]methoxy)-2-methylpropanoic acid], the IC50 at MCT4 turned out to be 6.3 nM; against MCT1, 26000 nM.
The like results for `COc1cccc(-c2cc(/C=C/C(C)(C)C(=O)O)nn2Cc2ccccc2Cl)c1` [Example 143, (3E)-4-[1-[(2-Chlorophenyl)methyl]-5-(3-methoxyphenyl)-1H-pyrazol-3-yl]-2,2-dimethylbut-3-enoic Acid] were, in that order, 195 nM and 3300 nM.
With `COc1cccc(-c2cc(CCC(C)(C)C(=O)O)nn2Cc2ccccc2Cl)c1` [Example 144, 4-[1-[(2-chlorophenyl)methyl]-5-(3-methoxyphenyl)-1H-pyrazol-3-yl]-2,2-dimethylbutanoic Acid], the results for the 50% inhibitory concentration (IC50) on MCT4 and against MCT1 were 127 nM and 2400 nM, respectively.
For `CCn1ncc2ccc(-c3cc(COC(C)(C)C(=O)O)nn3Cc3ccccc3Cl)cc21` [Example 151, Sodium 2-([1-[(2-chlorophenyl)methyl]-5-(1-ethyl-1H-indazol-6-yl)-1H-pyrazol-3-yl]methoxy)-2-methylpropanoate], the results for the half-inhibitory concentration (IC50) against MCT4 and against MCT1 were 3.6 nM and 70000 nM, respectively.
In the same order, the values of `CC(C)(OCc1cc(-c2cccc(OC3CC3)c2)n(-c2cccc3cn[nH]c23)n1)C(=O)O` [Example 152, 2-([5-(3-Cyclopropoxyphenyl)-1-(1H-indazol-7-yl)-1H-pyrazol-3-yl]methoxy)-2-methylpropanoic Acid] are 80 nM and above 100000 nM.
As for `CC(C)(OCc1cc(-c2cccc(OC3CC3)c2)n(-c2cccc3[nH]ncc23)n1)C(=O)O` [Example 153, 2-([5-(3-Cyclopropoxyphenyl)-1-(1H-indazol-4-yl)-1H-pyrazol-3-yl]methoxy)-2-methylpropanoic Acid], the figures for the IC50 against MCT4 and on MCT1 were 830 nM and 44000 nM, respectively.
On to `Cc1n[nH]c2cccc(-n3nc(COC(C)(C)C(=O)O)cc3-c3cccc(OC4CC4)c3)c12` [Example 154, 2-([5-(3-cyclopropoxyphenyl)-1-(3-methyl-1H-indazol-4-yl)-1H-pyrazol-3-yl]methoxy)-2-methylpropanoic Acid], for which the values for the IC50 at MCT4 and at MCT1 were 240 nM and above 100000 nM, respectively.
Regarding `CC(C)(OCc1cc(-c2ccccn2)n(-c2ccccc2Cl)n1)C(=O)O` [Example 156, 2-([1-(2-Chlorophenyl)-5-(pyridin-2-yl)-1H-pyrazol-3-yl]methoxy)-2-methylpropanoic acid], the IC50 against MCT4 is 1400 nM; on MCT1 it was above 100000 nM.
The like results for `CC(C)(OCc1cc(-c2cccc(OCC3COC3)c2)n(-c2ccccc2F)n1)C(=O)O` [Example 158, 2-([1-(2-Fluorophenyl)-5-[3-(oxetan-3-yl-methoxy)phenyl]-1H-pyrazol-3-yl]-methoxy)-2-methylpropanoic acid] were, in that order, 580 nM and above 100000 nM.
With `CC(C)(OCc1cc(-c2cccc(OC3CCC3)c2)n(-c2ccccc2F)n1)C(=O)O` [Example 159, 2-([5-(3-Cyclobutoxyphenyl)-1-(2-fluoro-phenyl)-1H-pyrazol-3-yl]methoxy)-2-methylpropanoic acid], the concentration for half-maximal inhibition (IC50) is 11 nM against MCT4 and above 100000 nM against MCT1.
In the same order, the values of `CC(C)(OCc1cc(-c2cccc(OC3COC3)c2)n(-c2ccccc2F)n1)C(=O)O` [Example 160, 2-([1-(2-Fluorophenyl)-5-[3-(oxetan-3-yl-oxy)phenyl]-1H-pyrazol-3-yl]methoxy)-2-methylpropanoic acid] are 270 nM and above 100000 nM.
Regarding `CCOc1cc(OCC)cc(-c2cc(COC(C)(C)C(=O)O)nn2-c2ccccc2C)c1` [Example 162, 2-([5-(3,5-Diethoxyphenyl)-1-(2-methyl-phenyl)-1H-pyrazol-3-yl]methoxy)-2-methylpropanoic acid], the IC50 at MCT4 worked out at 6.4 nM; on MCT1, 34000 nM.
In the same order, the values of `CCn1ncc2ccc(-c3cc(COC(C)(C)C(=O)O)nn3-c3ccccc3N(C)C)cc21` [Example 163, 2-([1-[2-(dimethylamino)phenyl]-5-(1-ethyl-1H-indazol-6-yl)-1Hpyrazol-3-yl]-methoxy)-2-methylpropanoic acid] are 4.4 nM and 73000 nM.
`CCOc1ccccc1-n1nc(COC(C)(C)C(=O)O)cc1-c1cc(OC)cc(OC)c1` [Example 164, 2-([5-(3,5-Dimethoxyphenyl)-1-(2-ethoxy-phenyl)-1H-pyrazol-3-yl]methoxy)-2-methylpropanoic acid]: the IC50 is 43 nM at MCT4 and above 100000 nM on MCT1.
Consider `CCn1ncc2ccc(-c3cc(COC(C)(C)C(=O)O)nn3-c3cccc4cnn(C)c34)cc21` [Example 165, 2-([5-(1-Ethyl-1H-indazol-6-yl)-1-(1-methyl-1H-indazol-7-yl)-1H-pyrazol-3-yl]-methoxy)-2-methylpropanoic acid], for which the IC50 against MCT4 is 85 nM; at MCT1, 99000 nM.
The like results for `Cn1ncc2cccc(-n3nc(COC(C)(C)C(=O)O)cc3-c3cccc(OCC4CC4)c3)c21` [Example 169, 2-([5-[3-(Cyclopropylmethoxy)phenyl]-1-(1-methyl-1H-indazol-7-yl)-1H-pyrazol-3-yl]-methoxy)-2-methylpropanoic acid] were, in that order, 12.2 nM and 68000 nM.
Turning to `CCOc1cc(OCC)cc(-c2cc(COC(C)(C)C(=O)O)nn2-c2cccc3cnn(C)c23)c1` [Example 171, 2-([5-(3,5-Diethoxyphenyl)-1-(1-methyl-1H-indazol-7-yl)-1H-pyiazol-3-yl]methoxy)-2-methylpropanoic acid], the IC50 worked out at 12 nM against MCT4 and 32000 nM on MCT1.
As for `CCn1ncc2cccc(-n3nc(COC(C)(C)C(=O)O)cc3-c3cccc(OCC(C)(C)C)c3)c21` [Example 172, 2-([5-(3-(2,2-Dimethylpropoxy)phenyl]-1-(1-ethyl-1H-indazol-7-yl)-1H-pyrazol-3-yl]-methoxy)-2-methylpropanoic acid], the results for the IC50 at MCT4 and at MCT1 were 0.59 nM and 33000 nM, respectively.
Turning to `CC(C)(OCc1cc(-c2cccc(OCC3COC3)c2)n(-c2ccccc2Cl)n1)C(=O)O` [Example 173, 2-([1-(2-Chlorophenyl)-5-[3-(oxetan-3-yl-methoxy)phenyl)-1H-pyraz.ol-3-yl]-methoxy)-2-methylpropanoic acid], the IC50 stood at 230 nM against MCT4 and 66000 nM against MCT1.
With `Cn1ncc2ccc(-c3cc(COC(C)(C)C(=O)O)nn3-c3ccccc3Cl)cc21` [Example 174, 2-([1-(2-Chlorophenyl)-5-(1-methyl-1H-indazol-6-yl)-1H-pyrazol-3-yl]methoxy)-2-methylpropanoic acid], the IC50 on MCT4 was 101 nM; on MCT1 it was above 100000 nM.
Regarding `CC(C)(OCc1cc(-c2cccc(OC3COC3)c2)n(-c2ccccc2Cl)n1)C(=O)O` [Example 176, 2-([1-(2-Chlorophenyl)-5-[3-(oxetan-3-yl-oxy)phenyl]-1Hpyrazol-3-yl]methoxy)-2-methylpropanoic acid], the IC50 was 180 nM on MCT4 and above 100000 nM against MCT1.
Take `CC(C)(OCc1cc(-c2cccc(OC3CC3)c2)n(-c2ccccc2F)n1)C(=O)O` [Example 181, 2-([5-(3-cyclopropoxyphenyl)-1-(2-fluorophenyl)-1H-pyrazol-3-yl]methoxy)-2-methylpropanoate]: the IC50 against MCT4 came to 20 nM; against MCT1, 25000 nM.

The term IC50 denotes the concentration that gives 50% inhibition. A low value points to inhibition by little substance.
